Measurements taken from DBAASP.
≈ marks a conversion by molar mass, not a printed value. Values belong to the molecule of their own block, whether it stands above or below them.

How the values were obtained:
Assay in all cases: ≥ marks a high value that may be exact or a test limit, other limits are often not marked, values filed in µg/mL are converted to µM
[1] = system: Escherichia coli CGMCC 1.8732
[2] = system: Pseudomonas aeruginosa CGMCC 1.2421
[3] = system: Staphylococcus epidermidis CGMCC 1.4260
[4] = system: Bacillus subtilis CGMCC 1.3376
[5] = system: Klebsiella pneumoniae CGMCC 1.1736
[6] = system: Staphylococcus aureus CGMCC 1.8721
[7] = system: Staphylococcus epidermidis
Botrytis cinerea = system: Botrytis cinerea
[8] = system: Escherichia coli O157:H7 ATCC 43895
[9] = system: Aspergillus flavus KCTC 9471
[10] = system: Aspergillus fumigatus KCTC 6145
Salmonella typhimurium = system: Salmonella typhimurium
Escherichia coli = system: Escherichia coli
Pseudomonas aeruginosa = system: Pseudomonas aeruginosa
[11] = system: Listeria monocytogenes KCTC 3710
Staphylococcus aureus = system: Staphylococcus aureus
Fusarium verticillioides = system: Fusarium verticillioides
Proteus vulgaris = system: Proteus vulgaris
[12] = system: Candida albicans KCTC 7270
Trichosporon beigelii = system: Trichosporon beigelii
Saccharomyces cerevisiae = system: Saccharomyces cerevisiae
Bacillus subtilis = system: Bacillus subtilis
[13] = system: Enterococcus faecalis NCTC 12697
[14] = system: Escherichia coli ATCC 25922(GenR)
[15] = system: Bacillus subtilis ATCC 23857
[16] = system: Staphylococcus aureus NCTC 10788
[17] = system: Candida albicans NCPF 1467
[18] = system: Staphylococcus aureus NCTC 12493
[19] = system: Escherichia coli NCTC 10418
[20] = system: Klebsiella pneumoniae ATCC 700603
[21] = system: Staphylococcus aureus ATCC 25923(RifR)
[22] = system: Escherichia coli ATCC 25922(RifR)
[23] = system: Staphylococcus aureus ATCC 25923(GenR)
[24] = system: Pseudomonas aeruginosa ATCC 27853
[25] = system: Escherichia coli DH5alpha
Bacillus cereus = system: Bacillus cereus
Vibrio cholerae = system: Vibrio cholerae
[26] = system: Fusarium solani MTCC 10158
[27] = system: Staphylococcus aureus ATCC 43300
[28] = system: Salmonella enterica subsp. enterica serovar Typhi
[29] = system: Xanthomonas axonopodis ITCC BD00029
[30] = system: Candida albicans MTCC 227
[31] = system: Xanthomonas oryzae ITCC BB00026
[32] = system: Staphylococcus aureus AB94004
[33] = system: Salmonella enterica AB2010185
Pseudomonas putida = system: Pseudomonas putida
[34] = system: Klebsiella oxytoca AB2010143
[35] = system: Micrococcus luteus AB2010179
[36] = system: Bacillus magaterium AB90008
[37] = system: Enterobacter cloacae AB2010162
Pseudomonas fluorescens = system: Pseudomonas fluorescens

MIC [1]: 12.5 µM (≈ 30.4 µg/mL) | MIC [2]: 12.5 µM (≈ 30.4 µg/mL) | MIC [3]: 6.25 µM (≈ 15.2 µg/mL) | MIC [4]: 3.13 µM (≈ 7.62 µg/mL) | MIC [5]: 25 µM (≈ 60.9 µg/mL) | MIC [6]: 25 µM (≈ 60.9 µg/mL)
Compound: CC[C@H](C)[C@H](NC(=O)[C@H](C)N)C(=O)NCC(=O)N[C@@H](CO)C(=O)N[C@H](C(=O)N[C@@H](CC(C)C)C(=O)NCC(=O)N[C@@H](C)C(=O)N[C@@H](CC(C)C)C(=O)N[C@@H](C)C(=O)N[C@@H](CCCCN)C(=O)NCC(=O)N[C@@H](CC(C)C)C(=O)N1CCC[C@H]1C(=O)N[C@H](C(=O)N[C@@H](CC(C)C)C(=O)N[C@@H](CCCN=C(N)N)C(=O)N[C@@H](CO)C(=O)N[C@@H](Cc1c[nH]c2ccccc12)C(=O)N[C@H](C(=O)N[C@@H](CCCCN)C(=O)N[C@@H](CC(N)=O)C(=O)N[C@@H](CCCN=C(N)N)C(N)=O)[C@@H](C)CC)[C@@H](C)O)[C@@H](C)CC [AIGSILGALAKGLPTLRSWIKNR]

Compound: CC[C@H](C)[C@H](NC(=O)[C@H](CCCCN)NC(=O)[C@H](CO)NC(=O)[C@H](Cc1ccccc1)NC(=O)[C@H](CO)NC(=O)[C@H](CCCCN)NC(=O)[C@H](CCC(=O)O)NC(=O)[C@H](CC(C)C)NC(=O)[C@H](CCCN=C(N)N)NC(=O)[C@H](CCCCN)NC(=O)[C@H](Cc1ccccc1)NC(=O)[C@@H](NC(=O)[C@H](CCCCN)NC(=O)[C@H](CCCCN)NC(=O)[C@H](C)N)C(C)C)C(=O)N[C@@H](CCC(N)=O)C(=O)N[C@@H](CC(N)=O)C(=O)N[C@@H](CC(=O)O)C(=O)N[C@@H](CCCCN)C(N)=O [AKKVFKRLEKSFSKIQNDK]
MIC [7]: 12.5 µM (≈ 28.7 µg/mL) | MIC (Botrytis cinerea): ≥ 50 µM | MIC [8]: 12.5 µM (≈ 28.7 µg/mL) | MIC [9]: ≥ 50 µM | MIC [10]: ≥ 50 µM | MIC (Salmonella typhimurium): 12.5 µM (≈ 28.7 µg/mL) | MIC (Escherichia coli): 12.5 µM (≈ 28.7 µg/mL) | MIC (Pseudomonas aeruginosa): 12.5 µM (≈ 28.7 µg/mL) | MIC [11]: 12.5 µM (≈ 28.7 µg/mL) | MIC (Staphylococcus aureus): > 12.5 µM | MIC (Fusarium verticillioides): ≥ 50 µM | MIC (Proteus vulgaris): 12.5 µM (≈ 28.7 µg/mL) | MIC [12]: 25 µM (≈ 57.3 µg/mL) | MIC (Trichosporon beigelii): 12.5 µM (≈ 28.7 µg/mL) | MIC (Saccharomyces cerevisiae): 25 µM (≈ 57.3 µg/mL) | MIC (Bacillus subtilis): 6.25 µM (≈ 14.3 µg/mL)

MIC [13]: 8 µM (≈ 11.1 µg/mL) | MIC [14]: ≥ 32 µM | MIC [15]: 4 µM (≈ 5.53 µg/mL) | MIC [16]: 2 µM (≈ 2.77 µg/mL) | MIC [17]: 4 µM (≈ 5.53 µg/mL) | MIC [18]: 4 µM (≈ 5.53 µg/mL) | MIC [19]: 16 µM (≈ 22.1 µg/mL) | MIC [20]: > 128 µM | MIC [21]: 16 µM (≈ 22.1 µg/mL) | MIC [22]: ≥ 32 µM | MIC [23]: 8 µM (≈ 11.1 µg/mL) | MIC [24]: 128 µM (≈ 177 µg/mL)
Compound: CC[C@H](C)[C@H](NC(=O)[C@@H]1CCCN1C(=O)[C@H](CC(C)C)NC(=O)[C@@H](N)Cc1ccccc1)C(=O)N[C@H](C(=O)N[C@@H](C)C(=O)N[C@@H](CCCCN)C(=O)N[C@@H](CC(C)C)C(=O)N[C@@H](CC(C)C)C(=O)N[C@@H](CO)C(=O)NCC(=O)N[C@@H](CC(C)C)C(=O)N[C@@H](CC(C)C)C(N)=O)C(C)C [FLPIVAKLLSGLL]

MIC [25]: 20 µM (≈ 27.9 µg/mL) | MIC (Bacillus cereus): 10 µM (≈ 13.9 µg/mL) | MIC [26]: 20 µM (≈ 27.9 µg/mL) | MIC [27]: 10 µM (≈ 13.9 µg/mL) | MIC [28]: 10 µM (≈ 13.9 µg/mL) | MIC [29]: 5 µM (≈ 6.97 µg/mL) | MIC [30]: ≥ 40 µM | MIC [31]: 10 µM (≈ 13.9 µg/mL)
Compound: NCCCC[C@H](NC(=O)[C@H](CCCCN)NC(=O)[C@H](CS)NC(=O)[C@@H]1CSSC[C@H](N)C(=O)N[C@@H](CCCN=C(N)N)C(=O)N[C@@H](Cc2c[nH]c3ccccc23)C(=O)N[C@@H](CCCN=C(N)N)C(=O)N[C@@H](Cc2c[nH]c3ccccc23)C(=O)N[C@@H](CCCCN)C(=O)N1)C(=O)O [CRWRWKCCKK]
MIC (Vibrio cholerae): 20 µM (≈ 27.9 µg/mL)

MIC [25]: 15.8 µM (≈ 40.7 µg/mL) | MIC [32]: 5.6 µM (≈ 14.4 µg/mL) | MIC [33]: 30 µM (≈ 77.3 µg/mL) | MIC (Pseudomonas putida): 20 µM (≈ 51.5 µg/mL) | MIC [34]: ≥ 45 µM | MIC [35]: 15.8 µM (≈ 40.7 µg/mL) | MIC [36]: 30 µM (≈ 77.3 µg/mL) | MIC [37]: ≥ 45 µM | MIC (Pseudomonas fluorescens): ≥ 40 µM
Compound: CC[C@H](C)[C@H](NC(=O)[C@H](CC(C)C)NC(=O)[C@H](CCCCN)NC(=O)[C@H](CC(C)C)NC(=O)[C@H](C)NC(=O)CNC(=O)[C@H](CCCCN)NC(=O)[C@H](C)NC(=O)[C@H](CC(C)C)NC(=O)[C@H](C)NC(=O)CNC(=O)[C@H](Cc1c[nH]c2ccccc12)NC(=O)[C@@H](N)Cc1ccccc1)C(=O)N1CCC[C@H]1C(=O)N[C@@H](CO)C(=O)N[C@@H](CC(C)C)C(=O)N[C@H](C(=O)N[C@@H](CO)C(=O)N[C@@H](CO)C(=O)N[C@@H](Cc1ccccc1)C(=O)N[C@H](C(=O)N[C@@H](CCCCN)C(=O)N[C@@H](CCCCN)C(=O)N[C@@H](CC(=O)O)C(N)=O)[C@@H](C)O)C(C)C [FWGALAKGALKLIPSLVSSFTKKD]
